Measured values: BigSolDB 2.1

O=C(O)c1cccc(C(=O)O)n1
Details | solubility (mole fraction)
in 1,4-dioxane, 293.15 K | 0.00197
in 1,4-dioxane, 298.15 K | 0.00219
in 1,4-dioxane, 303.15 K | 0.0025
in 1,4-dioxane, 308.15 K | 0.00291
in 1,4-dioxane, 313.15 K | 0.00336
in 1,4-dioxane, 318.15 K | 0.00393
in 1,4-dioxane, 323.15 K | 0.00481
in 1,4-dioxane, 328.15 K | 0.00567
in 1,4-dioxane, 333.15 K | 0.00671
in THF, 278.15 K | 0.00256
in THF, 283.15 K | 0.00275
in THF, 288.15 K | 0.00302
in THF, 293.15 K | 0.00338
in THF, 298.15 K | 0.00381
in THF, 303.15 K | 0.00421
in THF, 308.15 K | 0.00462
in THF, 313.15 K | 0.00494
in THF, 318.15 K | 0.00549
in acetic acid, 293.15 K | 0.000799
in acetic acid, 298.15 K | 0.000876
in acetic acid, 303.15 K | 0.000991
in acetic acid, 308.15 K | 0.00116
in acetic acid, 313.15 K | 0.00131
in acetic acid, 318.15 K | 0.00156
in acetic acid, 323.15 K | 0.00177
in acetic acid, 328.15 K | 0.00197
in acetic acid, 333.15 K | 0.00227
in acetonitrile, 278.15 K | 0.000183
in acetonitrile, 283.15 K | 0.000225
in acetonitrile, 288.15 K | 0.000258
in acetonitrile, 293.15 K | 0.000306
in acetonitrile, 298.15 K | 0.000379
in acetonitrile, 303.15 K | 0.000453
in acetonitrile, 308.15 K | 0.000548
in acetonitrile, 313.15 K | 0.000653
in acetonitrile, 318.15 K | 0.000779
in ethanol, 278.15 K | 0.00378
in ethanol, 288.15 K | 0.00492
in ethanol, 293.15 K | 0.00579
in ethanol, 298.15 K | 0.00702
in ethanol, 303.15 K | 0.00846
in ethanol, 308.15 K | 0.00974
in ethanol, 313.15 K | 0.0114
in ethanol, 318.15 K | 0.0142
in ethyl acetate, 278.15 K | 0.000247
in ethyl acetate, 283.15 K | 0.000353
in ethyl acetate, 288.15 K | 0.000602
in ethyl acetate, 293.15 K | 0.000897
in ethyl acetate, 298.15 K | 0.00131
in ethyl acetate, 303.15 K | 0.00215
in ethyl acetate, 308.15 K | 0.00329
in ethyl acetate, 313.15 K | 0.00477
in ethyl acetate, 318.15 K | 0.00742
in formic acid, 278.15 K | 0.00285
in formic acid, 283.15 K | 0.00305
in formic acid, 288.15 K | 0.00326
in formic acid, 293.15 K | 0.00361
in formic acid, 298.15 K | 0.00408
in formic acid, 303.15 K | 0.00456
in formic acid, 308.15 K | 0.00507
in formic acid, 313.15 K | 0.00596
in formic acid, 318.15 K | 0.00694
in isopropanol, 278.15 K | 0.0038
in isopropanol, 283.15 K | 0.00417
in isopropanol, 288.15 K | 0.00485
in isopropanol, 293.15 K | 0.00555
in isopropanol, 298.15 K | 0.00638
in isopropanol, 303.15 K | 0.00735
in isopropanol, 308.15 K | 0.00896
in isopropanol, 313.15 K | 0.0106
in isopropanol, 318.15 K | 0.0125
in methanol, 278.15 K | 0.00449
in methanol, 283.15 K | 0.0048
in methanol, 288.15 K | 0.00547
in methanol, 293.15 K | 0.00676
in methanol, 298.15 K | 0.00874
in methanol, 303.15 K | 0.0118
in methanol, 308.15 K | 0.0155
in methanol, 313.15 K | 0.0209
in methanol, 318.15 K | 0.026
in n-propanol, 278.15 K | 0.00311
in n-propanol, 283.15 K | 0.00361
in n-propanol, 288.15 K | 0.00433
in n-propanol, 293.15 K | 0.00512
in n-propanol, 298.15 K | 0.00632
in n-propanol, 303.15 K | 0.00761
in n-propanol, 308.15 K | 0.00892
in n-propanol, 313.15 K | 0.0107
in n-propanol, 318.15 K | 0.0135
in toluene, 278.15 K | 0.000365
in toluene, 283.15 K | 0.000582
in toluene, 288.15 K | 0.000848
in toluene, 293.15 K | 0.00119
in toluene, 298.15 K | 0.00175
in toluene, 303.15 K | 0.00253
in toluene, 308.15 K | 0.00356
in toluene, 313.15 K | 0.00487
in toluene, 318.15 K | 0.00589
